pIC50: −log10 of the molar value.
Assays:
[1] = biological target: T1, HCV polymerase (Hepatitis C virus genotype 1b, UniProt Q9WMX2); experiment: biochemical; conditions: polymerase assay of Biological Example 1; read-out: NS5B polymerase IC50
T1 construct: (His)6 (C)

[2] = system: HCV replicon I389luc-ubi-neo/NS3-3'/ET in ET (Huh-lucubineo-ET) cells; experiment: Replicon assay (Biological Example 2), luciferase read-out; assay type: cell-based; conditions: Hepatitis C virus, luciferase activity 48 hours after compound addition
Summary of the method: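 ET cells stably carry the replicon with adaptive mutations E1202G, […] and K1846T. Compound is added 24 h after plating at 0.1 nM–50 μM final (10-point, 3-fold dilutions) with 0.5% DMSO, and luciferase is read 48 h later. EC50 comes from a Hill-equation fit of % inhibition versus no-compound control.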

Row | Structure (SMILES) | pIC50 [1] | pIC50 [2]
1 | CCc1ccc(-c2oc3nc(N(C)S(C)(=O)=O)c(C4CC4)cc3c2C(=O)NC)cc1 [Example 2.94, 5-cyclopropyl-2-(4-ethylphenyl)-N-methyl-6-(N-methylmethylsulfonamido)furo[2,3-b]pyridine-3-carboxamide] | 8.52 | ≥ 7.00
2 | CNC(=O)c1c(-c2ccc(F)cc2)oc2nc(N(CCCC3CCCS3(=O)=O)S(C)(=O)=O)c(I)cc12 (stereo not shown) [Example 18.97, 6-{[3-(1,1-Dioxo-tetrahydrothiophen-2-yl)-propyl]-methanesulfonyl-amino}-2-(4-fluoro-phenyl)-5-iodo-furo[2,3-b]pyridine-3-carboxylic acid methylamide] | 7.49 | ≥ 7.00
3 | CNC(=O)c1c(-c2ccc(F)cc2)oc2nc(N(C)S(C)(=O)=O)c(C3CC3)cc12 [Example 1, 5-Cyclopropyl-2-(4-fluoro-phenyl)-6-(methanesulfonyl-methyl-amino)-furo[2,3-b]pyridine-3-carboxylic acid methylamide] | 7.80 | ≥ 7.00
4 | CNC(=O)c1c(-c2ccc(Cl)cc2)oc2nc(N(CCCCC(=O)O)S(C)(=O)=O)c(C3CC3)cc12 [Example 27.5, 5-(N-(2-(4-chlorophenyl)-5-cyclopropyl-3-(methylcarbamoyl)furo[2,3-b]pyridin-6-yl)methylsulfonamido) pentanoic acid] | 9.00 | ≥ 7.00
5 | CNC(=O)c1c(-c2ccc(F)cc2)oc2nc(N(CCCC(=O)O)S(C)(=O)=O)c(I)cc12 [Example 18.95, 4-(N-(2-(4-fluorophenyl)-5-iodo-3-(methylcarbamoyl)furo[2,3-b]pyridin-6-yl)methylsulfonamido)butanoic acid] | 6.95 | ≤ 5.30
6 | CCc1cc2c(C(=O)NC)c(-c3ccc(F)cc3)oc2nc1N(CCCC1CCCS1(=O)=O)S(C)(=O)=O (racemic) [Example 22.98, 6-{[3-(1,1-Dioxo-tetrahydro-1lambdathiophen-2-yl)-propyl]-methanesulfonyl-amino}-5-ethyl-2-(4-fluoro-phenyl)-furo[2,3-b]pyridine-3-carboxylic acid methylamide] | 7.96 | ≥ 7.00
7 | CCc1cc2c(C(=O)NC)c(-c3ccc(F)cc3)oc2nc1N(CCCC1C(=O)CCS1(=O)=O)S(C)(=O)=O (stereo not shown) [Example 23.99, 5-Ethyl-2-(4-fluoro-phenyl)-6-{methanesulfonyl-[3-(1,1,3-trioxo-tetrahydrothiophen-2-yl)-propyl]-amino}-furo[2,3-b]pyridine-3-carboxylic acid methylamide] | 7.59 | ≥ 7.00
8 | CNC(=O)c1c(-c2ccc(F)cc2)oc2nc3c(cc12)C(C)CCCN3S(C)(=O)=O (stereo not shown) [Example 30, 2-(4-Fluoro-phenyl)-9-methanesulfonyl-5-methyl-6,7,8,9-tetrahydro-5H-1-oxa-9,10-diaza-cyclohepta[f]indene-3-carboxylic acid methylamide] | 7.21 | ≥ 7.00
9 | CNC(=O)c1c(-c2ccc(Oc3ccccc3)cc2)oc2nc(N(CCCC(C)(C)C(=O)O)S(C)(=O)=O)c(C3CC3)cc12 [Example 27.4, 5-(N-(5-cyclopropyl-3-(methylcarbamoyl)-2-(4-phenoxyphenyl)furo[2,3-b]pyridin-6-yl)methylsulfonamido)-2,2-dimethylpentanoic acid] | 9.00 | ≥ 7.00
10 | CNC(=O)c1c(-c2ccc(Cc3ccccc3)cc2)oc2nc(N(CCCCC(=O)O)S(C)(=O)=O)c(C3CC3)cc12 [Example 27.6, 5-(N-(2-(4-benzylphenyl)-5-cyclopropyl-3-(methylcarbamoyl)furo[2,3-b]pyridin-6-yl)methylsulfonamido) pentanoic acid] | 9.00 | ≥ 7.00
11 | CNC(=O)c1c(-c2ccc(F)cc2)oc2nc(N(CCCCS(C)(=O)=O)S(C)(=O)=O)c(I)cc12 [Example 18.997, 2-(4-fluorophenyl)-5-iodo-N-methyl-6-(N-(4-(methylsulfonyl)butyl)methylsulfonamido)furo[2,3-b]pyridine-3-carboxamide] | 7.66 | ≥ 7.00
